# Literature values in US20110077395A1, “INHIBITORS OF 11-BETA HYDROXYSTEROID DEHYDROGENASE TYPE I” (Bristol-Myers Squibb Company, priority 2005, published 2011).
# Test system: hepatic glucose production
# Details: mildly overweight individuals with type 2 diabetes, seven days, versus placebo
smiles,measurement,value
CC1(C)[C@@H](OC(=O)CCC(=O)O)CC[C@]2(C)[C@H]3C(=O)C=C4[C@@H]5C[C@@](C)(C(=O)O)CC[C@]5(C)CC[C@@]4(C)[C@]3(C)CC[C@@H]12 [carbenoxolone],hepatic glucose production,decrease in hepatic glucose production
